# Data: US10183950B2, “Thienopyrimidine inhibitors of atypical protein kinase C” (Cancer Research Technology Limited, priority 2011, dated 2019)
# Molecular target: T1, full-length human PKCι (Homo sapiens, UniProt P41743)
# T1 construct: Recombinant, full-length human PKCι expressed in Sf21 insect cells is also commercially available; purchased; host or cells: Sf21 insect cells
# T1 sequence (P41743 1-596): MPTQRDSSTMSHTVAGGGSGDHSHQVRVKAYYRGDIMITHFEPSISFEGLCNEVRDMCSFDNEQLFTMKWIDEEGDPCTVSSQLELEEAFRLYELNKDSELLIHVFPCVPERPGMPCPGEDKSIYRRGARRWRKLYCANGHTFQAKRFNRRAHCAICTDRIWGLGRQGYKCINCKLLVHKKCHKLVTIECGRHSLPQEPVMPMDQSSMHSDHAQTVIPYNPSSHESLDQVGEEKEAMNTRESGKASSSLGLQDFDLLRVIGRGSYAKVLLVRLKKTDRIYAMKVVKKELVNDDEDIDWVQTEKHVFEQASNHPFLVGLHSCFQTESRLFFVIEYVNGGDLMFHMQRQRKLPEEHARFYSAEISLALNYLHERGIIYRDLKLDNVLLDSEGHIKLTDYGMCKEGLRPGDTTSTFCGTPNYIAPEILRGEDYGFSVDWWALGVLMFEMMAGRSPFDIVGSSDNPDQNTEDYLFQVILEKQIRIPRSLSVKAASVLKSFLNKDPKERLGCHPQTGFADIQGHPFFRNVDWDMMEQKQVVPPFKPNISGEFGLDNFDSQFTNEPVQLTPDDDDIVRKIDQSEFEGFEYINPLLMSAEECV
# Test: PKCι IC50 IMAP fluorescence polarisation assay, full-length enzyme
# Assay type: biochemical
# Conditions: full length PKCi at 15 μM ATP; read-out: IC50 in IMAP assay against full length PKCi
row,SMILES,IC50
1,"Fc1ccc(Nc2csc3c(N[C@@H]4CCNC4)nc(-c4ccncc4F)nc23)cc1 [compound 493, N*7*-(4-Fluoro-phenyl)-2-(3-fluoro-pyridin-4-yl)-N*4*-(R)-pyrrolidin-3-yl-thieno[3,2-d]pyrimidine-4,7-diamine]",10000 to 40000 nM
2,"CC(C)(C)NC(=O)Nc1cc(-c2nc(N[C@@H]3CCNC3)c3sccc3n2)ccn1 [compound 582, 1-tert-Butyl-3-{4-[4-((R)-pyrrolidin-3-ylamino)-thieno[3,2-d]pyrimidin-2-yl]-pyridin-2-yl}-urea]",1000 to 10000 nM
3,"C=Cc1csc2c(NC[C@@H](N)Cc3ccccc3)nc(-c3ccncc3)nc12 [compound 408, (S)-3-Phenyl-N*1*-(2-pyridin-4-yl-7-vinyl-thieno[3,2-d]pyrimidin-4-yl)-propane-1,2-diamine]",< 100 nM
4,"N[C@H](CNc1nc(-c2ccncc2)nc2c(C#CCCO)csc12)Cc1ccccc1 [compound 531, 4-[4-((S)-2-Amino-3-phenyl-propylamino)-2-pyridin-4-yl-thieno[3,2-d]pyrimidin-7-yl]-but-3-yn-1-ol]",< 100 nM
5,"N[C@H](CNc1nc(-c2ccncc2)nc2c(-c3ccccc3)csc12)Cc1ccccc1 [compound 417, (S)-3-Phenyl-N*1*-(7-phenyl-2-pyridin-4-yl-thieno[3,2-d]pyrimidin-4-yl)-propane-1,2-diamine]",100 to 1000 nM
6,"N[C@H](CNc1nc(-c2ccncc2F)nc2c(C#CC3(O)CCC3)csc12)Cc1ccccc1 [compound 507, 1-[4-((S)-2-Amino-3-phenyl-propylamino)-2-(3-fluoro-pyridin-4-yl)-thieno[3,2-d]pyrimidin-7-ylethynyl]-cyclobutanol]",100 to 1000 nM
7,"N[C@H](CNc1nc(-c2ccncc2)nc2c(C#CCF)csc12)Cc1ccccc1 [compound 545, (S)-N*1*-[7-(3-Fluoro-prop-1-ynyl)-2-pyridin-4-yl-thieno[3,2-d]pyrimidin-4-yl]-3-phenyl-propane-1,2-diamine]",< 100 nM

# The remaining lines, values ahead:
row,IC50,SMILES
1,100 to 1000 nM,"c1ccc(-c2ccc(Nc3cc(-c4nc(N[C@@H]5CCNC5)c5sccc5n4)ccn3)nc2)cc1 [compound 601, {2-[2-(5-Phenyl-pyridin-2-ylamino)-pyridin-4-yl]-thieno[3,2-d]pyrimidin-4-yl}-(R)-pyrrolidin-3-yl-amine]"
2,< 100 nM,"COCC#Cc1csc2c(NC[C@@H](N)Cc3ccccc3)nc(-c3ccncc3)nc12 [compound 400, (S)-N*1*-[7-(3-Methoxy-prop-1-ynyl)-2-pyridin-4-yl-thieno[3,2-d]pyrimidin-4-yl]-3-phenyl-propane-1,2-diamine]"
3,< 100 nM,"C[C@H](O)C#Cc1csc2c(NC[C@@H](N)Cc3ccccc3)nc(-c3ccncc3)nc12 [compound 533, (S)-4-[4-((S)-2-Amino-3-phenyl-propylamino)-2-pyridin-4-yl-thieno[3,2-d]pyrimidin-7-yl]-but-3-yn-2-ol]"
4,10000 to 40000 nM,"NC(=O)CN1CC[C@@H](Nc2nc(-c3ccnc(Nc4ccccc4)c3)nc3ccsc23)C1 [compound 631, 2-{(R)-3-[2-(2-Phenylamino-pyridin-4-yl)-thieno[3,2-d]pyrimidin-4-ylamino]-pyrrolidin-1-yl}-acetamide]"

# Same assay, conditions: full length PKCi at 15 μM ATP; read-out: IC50 in IMAP assay against full length PKCi (Activity)
row,IC50,SMILES
1,< 100 nM,"N[C@H](CNc1nc(-c2ccncc2)nc2sc3c(c12)CCCC3)Cc1ccccc1O [compound 65, 2-[(S)-2-amino-3-(2-pyridin-4-yl-5,6,7,8-tetrahydro-benzo[4,5]thieno[2,3-d]pyrimidin-4-ylamino)-propyl]-phenol]"
2,1000 to 10000 nM,"CC(C)(C)C[C@H](N)CNc1nc(-c2ccncc2)nc2sc3c(c12)CCCC3 [compound 60, (S)-4,4-Dimethyl-N*1*-(2-pyridin-4-yl-5,6,7,8-tetrahydro-benzo[4,5]thieno[2,3-d]pyrimidin-4-yl)-pentane-1,2-diamine]"
3,1000 to 10000 nM,"NCCNc1nc(-c2ccncc2)nc2sc3c(c12)CCSC3 [compound 44, N*1*-(2-Pyridin-4-yl-5,8-dihydro-6H-thio-pyrano[4′,3′:4,5]thieno[2,3-d]pyrimidin-4-yl)-ethane-1,2-diamine]"
